ChEMBL document CHEMBL5620344, “Discovery of novel 5-(2-hydroxyphenyl)-2-phthalide-3(3H)-pyrazolones as balanced multifunctional agents against Alzheimer's disease” (Eur J Med Chem, 2023)
The source made the active and inactive calls. No cut-off for these calls is given here.

Assays:
[1] = Metal chelating activity assessed as compound-Fe2+ complex formation by measuring increase in absorbance at 37.5 uM in presence of FeSO4 by UV-vis spectrometry
[2] = biological target: Amyloid-beta precursor protein (Homo sapiens) (UniProt P05067); experiment: Inhibition of Cu2+-induced amyloid beta (1 to 42) (unknown origin) aggregation assessed as fewer amyloid beta (1 to 42) fibrils formation incubated for 24 hrs by transmission electron microscopy
Mus musculus [3] = experiment: Anti-inflammatory activity against amyloid beta (1 to 42)-induced alzheimer's disease mouse model assessed as decrease in TNF-alpha content in hippocampus at 8 to 32 mg/kg and measured on day 6; format: functional, organism-based; conditions: dose 8-32 mg/kg, time 6.0 day
Mus musculus [4] = experiment: Anti-oxidative stress against amyloid beta (1-42)-induced alzheimer's disease mouse model assessed as decrease in MDA content in hippocampus at 8 to 32 mg/kg and measured on day 6; format: functional, organism-based; conditions: dose 8-32 mg/kg, time 6.0 day
BV-2 [5] = experiment: Antioxidant activity against LPS-stimulated mouse BV-2 cells assessed as inhibition of ROS generation by measuring decrease in fluorescence intensity at 2.5 to 10 uM by DCFH-DA staining based fluorescence microscopy; format: functional, cell-based; conditions: dose 2.5-10 µM
Mus musculus [6] = experiment: Antialzheimer activity against amyloid beta (1-42)-induced alzheimer's disease mouse model assessed as decrease in cognitive impairment by measuring decrease in escape latency time during training phase at 8 to 32 mg/kg and measured for 5 days by Morris water maze test; format: functional, organism-based; conditions: dose 8-32 mg/kg, time 5.0 day
BV-2 [7] = experiment: Anti-neuroinflammatory activity against LPS-stimulated mouse BV-2 cells assessed as inhibition of TNF-alpha release at 0.5 uM by ELISA; format: functional
PC-12 [8] = experiment: Cytotoxicity against rat PC12 cells assessed as effect on cell viability at 2.5 to 25 uM by MTT assay; format: toxicity, cell-based; conditions: pc-12, 25 µM, dose 2.5-25 µM
PC-12 [9] = experiment: Neuroprotective activity against H2O2-induced cytotoxicity in rat PC12 cells assessed as cell viability at 10 uM by MTT assay (reference value: 54.9%); format: functional; conditions: read-out: Activity
[10] = Metal chelating activity assessed as compound-Fe3+ complex formation by measuring blue shift of maximum absorption peak at 37.5 uM in presence of FeCl3 by UV-Vis spectrometry
[11] = biological target: Amyloid-beta precursor protein (Homo sapiens) (UniProt P05067); experiment: Disaggregation of self-induced amyloid beta (1 to 42) (unknown origin) preformed fibrils at 25 uM by ThT fluorescence assay
Mus musculus [12] = experiment: Anti-oxidative stress against amyloid beta (1-42)-induced alzheimer's disease mouse model assessed as increase in SOD activity in hippocampus at 8 to 32 mg/kg and measured on day 6; format: functional, organism-based; conditions: dose 8-32 mg/kg, time 6.0 day
[13] = biological target: T1, Amine oxidase [flavin-containing] B (Homo sapiens, UniProt P27338); experiment: Inhibition of human recombinant MAO-B
T1 sequence (P27338 whole entry): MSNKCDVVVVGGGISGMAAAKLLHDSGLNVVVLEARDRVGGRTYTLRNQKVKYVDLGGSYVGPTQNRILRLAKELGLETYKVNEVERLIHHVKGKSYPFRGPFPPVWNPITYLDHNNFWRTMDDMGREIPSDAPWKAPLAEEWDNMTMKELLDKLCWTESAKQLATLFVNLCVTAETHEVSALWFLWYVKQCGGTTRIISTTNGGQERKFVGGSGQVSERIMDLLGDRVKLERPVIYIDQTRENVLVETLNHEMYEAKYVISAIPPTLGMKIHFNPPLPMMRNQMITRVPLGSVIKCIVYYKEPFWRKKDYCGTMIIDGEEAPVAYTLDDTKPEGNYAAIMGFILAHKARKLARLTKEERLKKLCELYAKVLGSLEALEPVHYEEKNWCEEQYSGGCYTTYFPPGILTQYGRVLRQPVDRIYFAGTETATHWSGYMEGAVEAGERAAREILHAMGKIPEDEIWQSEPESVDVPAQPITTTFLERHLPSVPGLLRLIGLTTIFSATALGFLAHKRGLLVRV

[14] = Tmax in BALB/c mouse plasma at 30 mg/kg, ig; format: ADME, organism-based; conditions: po
[15] = biological target: Amyloid-beta precursor protein (Homo sapiens) (UniProt P05067); experiment: Disaggregation of self-induced amyloid beta (1 to 42) (unknown origin) preformed fibrils assessed as reduction in long fibrils formed incubated for 24 hrs by transmission electron microscopy
[16] = Metal chelating activity assessed as compound-Al3+ complex formation by measuring blue shift of maximum absorption peak at 37.5 uM in presence of AlCl3 by UV-Vis spectrometry
Mus musculus [17] = experiment: Antialzheimer activity against amyloid beta (1-42)-induced alzheimer's disease mouse model assessed as decrease in amyloid beta (1 to 42) level in hippocampus at 32 mg/kg and measured on day 6 by ELISA; format: functional, organism-based; conditions: time 6.0 day
BV-2 [18] = experiment: Anti-neuroinflammatory activity against LPS-stimulated mouse BV-2 cells assessed as inhibition of TNF-alpha release at 2.5 uM by ELISA; format: functional
BV-2 [19] = experiment: Anti-neuroinflammatory activity against LPS-stimulated mouse BV-2 cells assessed as inhibition of NO release at 10 uM incubated for 24 hrs by Griess reagent based assay; format: functional
BV-2 [20] = experiment: Anti-neuroinflammatory activity against LPS-stimulated mouse BV-2 cells assessed as inhibition of NO release at 0.5 uM incubated for 24 hrs by Griess reagent based assay; format: functional
[21] = Metal chelating activity assessed as compound-Zn2+ complex formation by measuring red shift of absorption peak with declined absorption at 37.5 uM in presence of ZnCl2 by UV-Vis spectrometry
[22] = Cmax in BALB/c mouse brain at 30 mg/kg, ig; format: ADME, organism-based; conditions: po
[23] = Permeability of the compound at 100 ug/ml by PAMPA-BBB assay; format: ADME; conditions: dose 100 µg/ml, read-out: permeability
[24] = Half life in BALB/c mouse brain at 30 mg/kg, ig; format: ADME, organism-based; conditions: po
[25] = AUC (0 to t) in BALB/c mouse brain at 30 mg/kg, ig; format: ADME, organism-based; conditions: in vivo, po
PC-12 [26] = experiment: Neuroprotective activity against H2O2-induced cytotoxicity in rat PC12 cells assessed as cell viability at 2.5 uM by MTT assay (reference value: 54.9%); format: functional; conditions: read-out: Activity
[27] = biological target: Amyloid-beta precursor protein (Homo sapiens) (UniProt P05067); experiment: Disaggregation of Cu2+-induced amyloid beta (1 to 42) (unknown origin) preformed fibrils assessed as degradation of crude fibrils incubated for 24 hrs by transmission electron microcopy
[28] = Metal chelating activity assessed as compound-Cu2+ complex formation by measuring red shift of absorption peak with declined absorption at 37.5 uM in presence of CuCl2 by UV-Vis spectrometry
[29] = Antioxidant activity assessed as inhibition of Cu2+-induced ROS production by measuring decrease in fluorescence intensity in presence of Cu2+ and ascorbate by CCA-dye based fluorescence analysis; format: functional
PC-12 [30] = experiment: Neuroprotective activity against H2O2-induced cytotoxicity in rat PC12 cells assessed as cell viability at 1 uM by MTT assay (reference value: 54.9%); format: functional; conditions: read-out: Activity
[31] = biological target: Amyloid-beta precursor protein (Homo sapiens) (UniProt P05067); experiment: Inhibition of self-induced amyloid beta (1 to 42) (unknown origin) aggregation assessed as decrease in number of aggregates formed incubated for 24 hrs by transmission electron microscopy
[32] = Ratio of AUC in brain to plasma in BALB/c at 30 mg/kg, ig; format: ADME, organism-based; conditions: mouse, po

Chain of Amyloid-beta precursor protein (Homo sapiens) (P05067 whole entry): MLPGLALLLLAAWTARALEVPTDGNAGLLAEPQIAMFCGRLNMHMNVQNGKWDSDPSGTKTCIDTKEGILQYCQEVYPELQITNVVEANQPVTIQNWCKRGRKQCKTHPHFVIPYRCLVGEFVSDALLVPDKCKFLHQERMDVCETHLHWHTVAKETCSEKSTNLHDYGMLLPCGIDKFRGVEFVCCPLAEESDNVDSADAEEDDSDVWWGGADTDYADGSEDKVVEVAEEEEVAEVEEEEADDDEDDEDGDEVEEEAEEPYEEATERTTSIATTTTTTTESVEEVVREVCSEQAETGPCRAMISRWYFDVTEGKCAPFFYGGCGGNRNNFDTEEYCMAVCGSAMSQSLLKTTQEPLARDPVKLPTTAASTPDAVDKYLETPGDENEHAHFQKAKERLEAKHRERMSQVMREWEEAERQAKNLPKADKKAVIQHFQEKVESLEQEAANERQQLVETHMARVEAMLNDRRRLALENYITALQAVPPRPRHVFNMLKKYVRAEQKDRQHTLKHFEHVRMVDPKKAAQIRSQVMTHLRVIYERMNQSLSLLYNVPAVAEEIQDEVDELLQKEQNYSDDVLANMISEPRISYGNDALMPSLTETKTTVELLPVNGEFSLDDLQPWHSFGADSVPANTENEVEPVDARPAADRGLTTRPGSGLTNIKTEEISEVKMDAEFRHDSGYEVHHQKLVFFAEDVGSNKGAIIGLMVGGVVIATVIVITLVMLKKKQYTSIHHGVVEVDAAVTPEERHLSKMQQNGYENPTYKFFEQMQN

Activity [1]: Active | inhibition [2]: Active | Activity [10]: Active | Activity [11]: 81.9% | IC50 [13]: 410 nM | Tmax [14]: 0.5 h | Activity [15]: Active | Activity [16]: Active | Activity [21]: Active | Cmax [22]: 923 ng/g | Papp at 100 ug/ml [23]: 6.37 ×10⁻⁶ cm/s | half-life [24]: 2.07 h | AUCt [25]: 2032.5 ng·h/g | Activity [27]: Active | Activity [28]: Active | inhibition [31]: Active | Kp [32]: 0.69
SMILES: CCCCCCCC1OC(=O)c2cc(N3N=C(c4cc(Cl)ccc4O)CC3=O)ccc21 (configuration not stated)
Activity (Mus musculus [3]): Active | Activity (Mus musculus [4]): Dose-Dependent Effect | Activity (BV-2 [5]): Active | Activity (Mus musculus [6]): Active | inhibition at 0.5 µM (BV-2 [7]): 22.7% | Activity (PC-12 [8]): Non-Toxic | viability at 10 µM (PC-12 [9]): 77.7% | Activity (Mus musculus [12]): Dose-Dependent Effect | Activity (Mus musculus [17]): Active | inhibition at 2.5 µM (BV-2 [18]): 51.6% | inhibition at 10 µM (BV-2 [19]): 76.3% | inhibition at 0.5 µM (BV-2 [20]): 25.9% | viability at 2.5 µM (PC-12 [26]): 73.4% | Activity [29]: Active | viability at 1 µM (PC-12 [30]): 66.9%
